Results published in patent publication US7019109B2, “SSTR1-selective analogs” (The Salk Institute for Bilogical Studies, priority 2001, dated 2006).
Like-named read-outs stand apart in the source and are kept apart here. *1 amine or outer side, *2 acyl side, *3 side chain or, on linkers, in order; H or OH if unused. Where a SMILES comes first, the peptide text is derived from it. Bridges are numbered along the chain shown (N, C = ends). [ ]: non-standard residue; d: D form. NMePhe(4-CH2NHiPr) = CN[C@@H](Cc1ccc(CNC(C)C)cc1)C(=O)O; Phe(4-CH2NHiPr) = CC(C)NCc1ccc(C[C@H](N)C(=O)O)cc1; X1 = NC(=O)N[C@@H](CS[*:2])C(=O)[*:1]; d2Nal = N[C@H](Cc1ccc2ccccc2c1)C(=O)O; NMeS = CN[C@@H](CO)C(=O)O

Legend:
Assay type in all cases: binding
human SSTR1 = molecular target: T1, human SSTR1 (Homo sapiens, UniProt P30872); test: Displacement of 125I-[Leu8,D-Trp22,Tyr25]-SRIF-28 from cloned SSTR1 (receptor autoradiography)
T1 construct: expressed in transfected cells; host or cells: CHO-K1 cells and CCL39 cells
Method: (§1) Generally, recombinant cells expressing the receptor are washed and homogenized to prepare a crude protein homogenate that is frozen, embedded and then cut in 10–20 μm thin sections, as known in this art. Candidate substances, such as potential SRIF agonists and antagonists, are incubated with the tissue sections, and the interaction between the candidate substance and the receptor polypeptide is monitored.
(§2) Receptor binding assays are performed on cloned SRIF receptors as generally set forth in Reubi, J. C. et al., J. Clin. Endocrinol. […] Med. 2000, 27, 273–282.
(§3) In vitro Bioassay: The various somatostatin analogs are tested in vitro for their ability to bind to isolated cloned receptors expressed on CHO-K1 cells and CCL39 cells. CHO-K1 cells are grown in Ham's F-12 medium, and CCL39 cells are grown in Dulbecco's modified Eagle's medium/Ham's F-12(1:1) mix, supplemented with 10% fetal bovine serum, 100 U/ml penicillin and 100 μg/ml streptomycin, in humidified air containing 5% CO2 at 37° C.
(§4) Cells are washed and prepared to produce homogenates as described in detail in Reubi, J. C. et al, Eur. J. Nucl. Med. 2000, 27, 273–282.
(§5) Receptor autoradiography is performed on 20 μm thick cryostat sections of the membrane pellets, mounted on microscope slides, and then stored at −20° C. […] Increasing concentrations of the unlabeled peptide are used ranging from 0.1–1000 nM. […] IC50 values are calculated after quantification of the data using a computer-assisted image processing system as known in this art.

human SSTR2 = molecular target: T2, human SSTR2 (Homo sapiens, UniProt P30874); test: Displacement of 125I-[Leu8,D-Trp22,Tyr25]-SRIF-28 from cloned SSTR2 (receptor autoradiography); settings: read-out: IC50 (nM) mSSTR2
T2 construct: expressed in transfected cells; host or cells: CHO-K1 cells and CCL39 cells
Method: as §1, §2, §3, §4
(§6) Receptor autoradiography is performed on 20 μm thick cryostat sections of the membrane pellets, mounted on microscope slides, and then stored at −20° C. […] […] […] IC50 values are calculated after quantification of the data using a computer-assisted image processing system as known in this art.

human SSTR3 = molecular target: T3, human SSTR3 (Homo sapiens, UniProt P32745); test: Displacement of 125I-[Leu8,D-Trp22,Tyr25]-SRIF-28 from cloned SSTR3 (receptor autoradiography); settings: read-out: IC50 (nM) mSSTR3
T3 construct: expressed in transfected cells; host or cells: CHO-K1 cells and CCL39 cells
Method: as §1, §2, §3, §4, §5

human SSTR4 = molecular target: T4, human SSTR4 (Homo sapiens, UniProt P31391); test: Displacement of 125I-[Leu8,D-Trp22,Tyr25]-SRIF-28 from cloned SSTR4 (receptor autoradiography); settings: read-out: IC50 (nM) mSSTR4
T4 construct: expressed in transfected cells; host or cells: CHO-K1 cells and CCL39 cells
Method: as §1, §2, §3, §4, §5

human SSTR5 = molecular target: T5, human SSTR5 (Homo sapiens, UniProt P35346); test: Displacement of 125I-[Leu8,D-Trp22,Tyr25]-SRIF-28 from cloned SSTR5 (receptor autoradiography); settings: read-out: IC50 (nM) mSSTR5
T5 construct: expressed in transfected cells; host or cells: CHO-K1 cells and CCL39 cells
Method: as §1, §2, §3, §4, §6

[1] = inhibition of radioligand binding of 125I-[Leu8,D-Trp22,Tyr24]SRIF-28, cloned receptor, table, read-out: IC50 (nM) mSSTR1
[2] = unit inferred, read-out: IC50 / binding affinity at SSTR1, unit inferred

T2 sequence (P30874 whole entry): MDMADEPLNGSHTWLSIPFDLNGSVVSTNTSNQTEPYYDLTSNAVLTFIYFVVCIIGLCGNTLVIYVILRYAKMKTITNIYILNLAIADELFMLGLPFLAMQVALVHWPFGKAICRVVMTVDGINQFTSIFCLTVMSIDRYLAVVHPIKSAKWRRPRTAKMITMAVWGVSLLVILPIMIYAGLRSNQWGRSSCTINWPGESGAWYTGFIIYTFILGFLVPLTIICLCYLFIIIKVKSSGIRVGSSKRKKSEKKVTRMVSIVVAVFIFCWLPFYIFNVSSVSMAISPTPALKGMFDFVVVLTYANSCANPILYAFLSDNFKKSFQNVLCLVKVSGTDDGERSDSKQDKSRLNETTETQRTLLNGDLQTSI
T4 sequence (P31391 whole entry): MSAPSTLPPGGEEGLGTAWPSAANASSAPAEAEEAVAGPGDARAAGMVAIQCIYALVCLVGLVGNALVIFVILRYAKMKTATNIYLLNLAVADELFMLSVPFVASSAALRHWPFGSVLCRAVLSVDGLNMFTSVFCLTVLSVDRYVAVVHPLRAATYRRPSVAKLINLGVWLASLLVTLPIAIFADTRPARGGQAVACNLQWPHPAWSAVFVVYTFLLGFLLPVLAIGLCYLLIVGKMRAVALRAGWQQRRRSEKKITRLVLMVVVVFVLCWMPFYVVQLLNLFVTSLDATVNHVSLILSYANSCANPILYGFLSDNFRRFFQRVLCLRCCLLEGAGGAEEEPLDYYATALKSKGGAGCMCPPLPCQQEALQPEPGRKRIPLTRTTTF
T3 sequence (P32745 whole entry): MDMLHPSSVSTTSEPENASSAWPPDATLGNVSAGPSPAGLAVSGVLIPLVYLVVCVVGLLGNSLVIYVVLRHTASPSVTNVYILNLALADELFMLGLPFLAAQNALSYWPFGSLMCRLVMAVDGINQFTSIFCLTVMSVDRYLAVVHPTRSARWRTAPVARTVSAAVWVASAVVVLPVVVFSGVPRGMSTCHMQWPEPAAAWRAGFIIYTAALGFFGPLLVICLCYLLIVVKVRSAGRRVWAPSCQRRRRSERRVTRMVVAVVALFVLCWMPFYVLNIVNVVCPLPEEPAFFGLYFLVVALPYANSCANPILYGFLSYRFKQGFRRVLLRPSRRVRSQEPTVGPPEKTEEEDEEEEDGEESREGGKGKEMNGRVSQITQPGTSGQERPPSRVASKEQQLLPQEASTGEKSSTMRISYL
T1 sequence (P30872 whole entry): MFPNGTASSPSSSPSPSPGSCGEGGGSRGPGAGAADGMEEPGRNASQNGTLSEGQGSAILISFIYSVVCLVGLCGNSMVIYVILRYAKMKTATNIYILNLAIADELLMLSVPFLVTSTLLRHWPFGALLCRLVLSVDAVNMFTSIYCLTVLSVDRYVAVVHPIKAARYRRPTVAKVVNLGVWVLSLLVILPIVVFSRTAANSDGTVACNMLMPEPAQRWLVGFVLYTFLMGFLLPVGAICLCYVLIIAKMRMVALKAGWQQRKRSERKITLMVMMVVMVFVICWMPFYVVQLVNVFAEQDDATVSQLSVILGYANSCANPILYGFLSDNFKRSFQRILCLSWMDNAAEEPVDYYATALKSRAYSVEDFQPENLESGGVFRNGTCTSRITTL
T5 sequence (P35346 whole entry): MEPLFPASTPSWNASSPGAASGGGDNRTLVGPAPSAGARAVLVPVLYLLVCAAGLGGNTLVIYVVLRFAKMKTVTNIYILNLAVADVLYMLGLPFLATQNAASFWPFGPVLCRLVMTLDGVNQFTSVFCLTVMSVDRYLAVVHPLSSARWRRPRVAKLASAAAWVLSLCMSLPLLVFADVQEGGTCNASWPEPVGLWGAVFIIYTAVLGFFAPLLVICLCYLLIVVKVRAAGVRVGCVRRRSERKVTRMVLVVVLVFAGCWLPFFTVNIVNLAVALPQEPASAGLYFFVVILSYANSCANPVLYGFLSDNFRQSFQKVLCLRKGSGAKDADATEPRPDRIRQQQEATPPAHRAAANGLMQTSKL

Row | Structure (SMILES) | IC50 (human SSTR1; [1]) | IC50 (human SSTR1; [2]) | IC50 (human SSTR2) | IC50 (human SSTR3) | IC50 (human SSTR4) | IC50 (human SSTR5)
1 | CC(C)NCc1ccc(C[C@H]2C(=O)N[C@@H]([C@@H](C)O)C(=O)N[C@@H](Cc3ccccc3)C(=O)N[C@@H]([C@@H](C)O)C(=O)N[C@@H](CO)C(=O)N[C@H](C(=O)O)CSSC[C@H](N)C(=O)N[C@@H](CCCCN)C(=O)N[C@@H](Cc3ccccc3)C(=O)N[C@@H](Cc3ccccc3)C(=O)N[C@H](Cc3ccc4ccccc4c3)C(=O)N2C)cc1 [Peptide No. 15, (cyclo)H-Cys-Lys-Phe-Phe-D-2Nal-N^αMeIAmp-Thr-Phe-Thr-Ser-Cys-OH] (H-CKFF[d2Nal][NMePhe(4-CH2NHiPr)]TFTSC-OH; disulfide 1-11) | 43 nM | ~32.5 nM | > 1000 nM | > 1000 nM | > 1000 nM | > 10000 nM
2 | CC(C)NCc1ccc(C[C@H]2C(=O)N[C@@H]([C@@H](C)O)C(=O)N[C@@H](Cc3ccc(O)cc3)C(=O)N[C@@H]([C@@H](C)O)C(=O)N[C@@H](CO)C(=O)N[C@H](C(=O)O)CSSC[C@H](NC(N)=O)C(=O)N[C@@H](CCCCN)C(=O)N[C@@H](Cc3ccccc3)C(=O)N[C@@H](Cc3ccccc3)C(=O)N[C@H](Cc3ccc4ccccc4c3)C(=O)N2C)cc1 [Peptide No. 16, (cyclo)CbmCys-Lys-Phe-Phe-D-2Nal-N^αMeIAmp-Thr-Tyr-Thr-Ser-Cys-OH] (KFF[d2Nal][NMePhe(4-CH2NHiPr)]TYTSC-OH; linker N-10 via X1) | 32 nM | ~32 nM | > 10000 nM | > 1000 nM | > 10000 nM | > 10000 nM
3 | CC(C)NCc1ccc(C[C@@H]2NC(=O)[C@@H](Cc3c[nH]c4ccccc34)NC(=O)[C@H](Cc3ccccc3)NC(=O)[C@H](Cc3ccccc3)NC(=O)[C@H](CCCCN)NC(=O)[C@@H](N)CSSC[C@@H](C(=O)O)NC(=O)[C@H](CO)N(C)C(=O)[C@H]([C@@H](C)O)NC(=O)[C@H](Cc3ccccc3)NC(=O)[C@H]([C@@H](C)O)NC2=O)cc1 [Peptide No. 22A, (cyclo)H-Cys-Lys-Phe-Phe-D-Trp-IAmp-Thr-Phe-Thr-N^αMeSer-Cys-OH] (H-CKFF[dW][Phe(4-CH2NHiPr)]TFT[NMeS]C-OH; disulfide 1-11) | 25 nM |  | > 10000 nM | 600 nM | > 1000 nM | > 1000 nM
